The values below come from patent US6030940A, “Peptide analog inhibitors of urokinase receptor activity” (Chiron Corporation, priority 1997, dated 2000).

Several values for one entry are separate records, joined by “and”; a condition that tells them apart may be missing. Identical values can stand only once. Like-named read-outs stand apart in the source and are kept apart here. Square brackets hold non-standard residues; d marks the D form. Ends that are not written are not given here. Peptide text beside a SMILES is read from it. 1Nal = N[C@@H](Cc1cccc2ccccc12)C(=O)O

As a reminder, the IC50 is the concentration needed to halve the response being measured.

In one test the target is T1, soluble uPAR (Homo sapiens, UniProt Q03405).
T1 construct: Purified soluble uPAR was biotinylated
Briefly: 125I-ATF competition binding to immobilized soluble uPAR (Activity Assay). As to conditions: competition with iodinated human uPA ATF tracer (100-500 pM), 2h at room temperature, PBS/0.1% BSA, triplicate. From the text:
Purified soluble uPAR was biotinylated with NHS-biotin (Molecular Probes) and immobilized at 0.3 Tg/mL in phosphate-buffered saline (PBS)/0.1% BSA on streptavidin-coated Immulon-2 96-well Removawell plates. Human uPA N-terminal fragment (ATF; from M. Shuman, University of California, San Francisco) was iodinated by the Iodo-Gen method (Pierce). Unincorporated ^125 I was separated from labeled protein by Sephadex G-25 chromatography. The specific activity of the labeled protein was between 5×10^5 and 1×10^6 […]. The iodinated tracer (100-500 pM) was incubated with the peptides prepared in Example 1 triplicate for 2h at room temperature in PBS/0.1% BSA in a total volume of 200 TL. The plates were washed with PBS/0.1% BSA 3X, and remaining bound radioactivity was measured on an LKB 1277 Gammamaster. Scatchard analysis was performed by using the LIGAND program (Biosoft, Milltown, N.J.).

For the next test, the target named is uPAR (Homo sapiens, UniProt Q03405). As to conditions: E. Appella et al., J Biol Chem (1987), cited from earlier work.
The conditions of test [1]: U937 fibroblast cells; S. A. Rabbani et al.; cited from earlier work.
The test system of test [2] is SaOS-2 osteosarcoma cell line. As to conditions: S. A. Rabbani et al.; cited from earlier work.

T1 sequence (Q03405 23-305 limits assumed): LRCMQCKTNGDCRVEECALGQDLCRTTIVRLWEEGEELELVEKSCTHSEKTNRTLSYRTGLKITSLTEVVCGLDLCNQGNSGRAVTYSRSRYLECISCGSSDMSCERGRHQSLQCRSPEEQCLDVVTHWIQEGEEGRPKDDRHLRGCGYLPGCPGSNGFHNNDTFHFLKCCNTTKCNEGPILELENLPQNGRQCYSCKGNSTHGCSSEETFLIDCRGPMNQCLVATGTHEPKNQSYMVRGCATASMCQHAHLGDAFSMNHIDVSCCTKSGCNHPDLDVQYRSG
Sequence of uPAR (Q03405 23-335): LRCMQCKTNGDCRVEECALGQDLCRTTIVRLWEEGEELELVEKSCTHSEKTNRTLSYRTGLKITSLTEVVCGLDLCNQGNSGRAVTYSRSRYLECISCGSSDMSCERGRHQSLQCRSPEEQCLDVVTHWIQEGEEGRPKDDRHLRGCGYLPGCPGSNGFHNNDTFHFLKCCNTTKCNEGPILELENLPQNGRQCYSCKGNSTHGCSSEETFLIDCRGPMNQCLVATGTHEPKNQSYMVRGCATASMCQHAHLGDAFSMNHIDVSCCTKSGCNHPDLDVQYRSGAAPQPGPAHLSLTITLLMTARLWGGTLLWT

Take `CC(C)C[C@H](NC(=O)[C@H](Cc1ccc(O)cc1)NC(=O)[C@H](CCC(N)=O)NC(=O)CNC(=O)[C@H](Cc1ccccc1)NC(=O)[C@H](CC(N)=O)NC(=O)[C@@H](N)CC(C)C)C(=O)N[C@@H](Cc1cccc2ccccc12)C(=O)N[C@@H](Cc1ccc(O)cc1)C(=O)N[C@H](C(=O)O)[C@@H](C)O` [SEQ ID NO: 4, LNFGQYLnAYT] (H-LNFGQYL[1Nal]YT-OH): the half-inhibitory concentration (IC50) at soluble uPAR (IC50 (nM)) was 7 nM and 6 nM.

With `CC(C)C[C@H](NC(=O)[C@H](Cc1ccc(O)cc1)NC(=O)[C@H](CCC(N)=O)NC(=O)CNC(=O)[C@H](Cc1ccccc1)NC(=O)[C@H](CC(N)=O)NC(=O)[C@@H](N)CC(C)C)C(=O)N[C@@H](Cc1c[nH]c2ccccc12)C(=O)N[C@@H](Cc1ccc(O)cc1)C(=O)N[C@H](C(=O)O)[C@@H](C)O` [SEQ ID NO: 1, LNFGQYLWYT] (H-LNFGQYLWYT-OH), the IC50 at soluble uPAR (read-out: IC50) was 41 ± 17 nM.

With `CC(C)C[C@H](NC(=O)[C@H](Cc1ccc(O)cc1)NC(=O)[C@H](CS)NC(=O)[C@@H](CO)NC(=O)[C@H](Cc1ccccc1)NC(=O)[C@H](CS)NC(=O)[C@@H](N)CC(C)C)C(=O)N[C@@H](Cc1c[nH]c2ccccc12)C(=O)N[C@@H](Cc1ccc(O)cc1)C(=O)N[C@H](C(=O)O)[C@@H](C)O` [SEQ ID NO: 9, LCFdSCYLWYT] (H-LCF[dS]CYLWYT-OH), the IC50 on soluble uPAR (read-out: IC50) was 9 nM and 23 nM.

As for “uPA12-32: The critical domain alone, residues 12-32 of the uPA EGF-like domain (DCLNGGTCVSNKYFSNIHWCN; UniProt P00749 32-52, looked up, fragment)”, the “affinity relative to intact ATF (fold less)” value with uPAR is reported as “about 100 fold”. In addition, the Kd with uPAR (read-out: affinity for uPAR) is 0.04 µM.

For `CC(C)C[C@H](NC(=O)[C@H](Cc1ccc(O)cc1)NC(=O)[C@@H](CS)NC(=O)CNC(=O)[C@H](Cc1ccccc1)NC(=O)[C@H](CC(N)=O)NC(=O)[C@@H](N)CC(C)C)C(=O)N[C@@H](Cc1c[nH]c2ccccc12)C(=O)N[C@@H](CS)C(=O)N[C@H](C(=O)O)[C@@H](C)O` [SEQ ID NO: 8, LNFGdCYLWCT] (H-LNFG[dC]YLWCT-OH), the concentration for half-maximal inhibition (IC50) at soluble uPAR (read-out: IC50) was 8 nM and 14 nM.

Take `CC(C)C[C@H](NC(=O)[C@H](Cc1ccc(O)cc1)NC(=O)[C@H](CCC(N)=O)NC(=O)[C@@H](CO)NC(=O)[C@H](Cc1ccccc1)NC(=O)[C@H](CC(N)=O)NC(=O)[C@@H](N)CC(C)C)C(=O)N[C@@H](Cc1c[nH]c2ccccc12)C(=O)N[C@@H](Cc1ccc(O)cc1)C(=O)N[C@H](C(=O)O)[C@@H](C)O` [SEQ ID NO: 5, LNFdSQYLWYT] (H-LNF[dS]QYLWYT-OH): on soluble uPAR (read-out: IC50), the 50% inhibitory concentration (IC50) is 7 nM and 11 nM.

Take `CC(C)C[C@H](NC(=O)[C@H](Cc1ccc(O)cc1)NC(=O)[C@H](CCC(N)=O)NC(=O)[C@@H](CO)NC(=O)[C@H](Cc1ccccc1)NC(=O)[C@H](CC(N)=O)NC(=O)[C@@H](N)CC(C)C)C(=O)N[C@@H](Cc1cccc2ccccc12)C(=O)N[C@@H](Cc1ccc(O)cc1)C(=O)N[C@H](C(=O)O)[C@@H](C)O` [SEQ ID NO: 7, LNFdSQYLnAYT] (H-LNF[dS]QYL[1Nal]YT-OH): the IC50 at soluble uPAR (read-out: IC50) was determined as 33 ± 3 nM.

Turning to `CC(C)C[C@H](NC(=O)[C@H](Cc1ccc(O)cc1)NC(=O)[C@H](CS)NC(=O)[C@@H](CO)NC(=O)[C@H](Cc1ccccc1)NC(=O)[C@H](CS)NC(=O)[C@@H](N)CC(C)C)C(=O)N[C@@H](Cc1cccc2ccccc12)C(=O)N[C@@H](Cc1ccc(O)cc1)C(=O)N[C@H](C(=O)O)[C@@H](C)O` [SEQ ID NO: 10, LCFdSCYLnAYT] (H-LCF[dS]CYL[1Nal]YT-OH), on soluble uPAR (read-out: IC50), the half-inhibitory concentration (IC50) is 79 ± 10 nM.

With `CC(C)C[C@H](NC(=O)[C@H](Cc1ccc(O)cc1)NC(=O)[C@H](CS)NC(=O)[C@@H](CO)NC(=O)[C@H](Cc1ccccc1)NC(=O)[C@H](CC(N)=O)NC(=O)[C@@H](N)CC(C)C)C(=O)N[C@@H](Cc1c[nH]c2ccccc12)C(=O)N[C@@H](CS)C(=O)N[C@H](C(=O)O)[C@@H](C)O` [SEQ ID NO: 11, LNFdSCYLWCT] (H-LNF[dS]CYLWCT-OH), on soluble uPAR (read-out: IC50), the IC50 worked out at 225 ± 40 nM.

“fucosylated EGF-like domain: fucosylated EGF-like domain (uPA4-43, produced by cleavage from pro-uPA) (LHQVPSNCDCLNGGT(Fuc)CVSNKYFSNIHWCNCPKKFGGQHCE; cysteine pairing not given here; UniProt P00749 24-63, looked up, fragment)”: the mitogenic activity result is on record as “Neither fucosylated nor non-fucosylated EGF-like domain was mitogenic” in test [1] and “mitogenic” in test [2].
